What was measured:
non diabetic dogs = experiment: Reduction in blood glucose after oral administration of enteric coated capsule to non diabetic dogs; format: in vivo; details: overnight fasted dogs, propylene glycol, Capmul MCM, Pluronic F127, PEG 3350
non-diabetic SPRD rats = experiment: Reduction of the blood glucose level after per-oral dosage (via gavage) to non-diabetic SPRD rats; format: in vivo
Description: The reduction in blood glucose in non-diabetic rats was examined after:
3) Vehicle SEDDS containing 62.5% propylene glycol, 31.25% Capmul MCM C10 and 6.25% poloxamer 407 was dosed orally. SEDDS had been melted at 35° C. before dosing.
(mean±SEM, n=5-6, dosage volume=4 ml/kg).

Row | Substance | Blood glucose levels (non diabetic dogs; oral enteric coated capsule: 46 mg A14GluB25HisdesB30 human insulin, FIG. 2) | Blood glucose level (non-diabetic SPRD rats; 4800 nmol/kg in SEDDS (propylene glycol, Capmul MCM C10, poloxamer 407) or 4880 nmol/kg in H2O, FIG. 4) | Blood glucose levels (non diabetic dogs; oral enteric coated capsule: 69 mg insulin aspart, FIG. 1) | Blood glucose level (non-diabetic SPRD rats; 9600 nmol/kg in SEDDS (propylene glycol, Capmul MCM C10, poloxamer 407) or 9800 nmol/kg in H2O, FIG. 3)
1 | A14GluB25HisdesB30 human insulin | Reduction in blood glucose levels | Reduction of the Blood Glucose Level |  | 
2 | Asp^B28 human insulin [insulin aspart] |  |  | Reduction in blood glucose levels | Reduction of the Blood Glucose Level
